Experimental data as given in patent US10227331B2 (priority 2015, dated 2019).

Key:
[1] = tested on: P. aeruginosa expressing IMP-1, efflux+ (MB9798); format: cell-based, Pseudomonas aeruginosa; conditions: for P. aeruginosa expressing IMP-1, efflux+ (MB9798) MITC95: imipenem at 2 μg/mL, in the presence of a class A, C, D serine β-lactamase inhibitor closely related to relebactam; for Efflux ratio: ratio MITC95 PA_9798/MITC95 PA_9799
Text: (§1) The strain background is Pseudomonas aeruginosa PAO1.

[2] = tested on: Serratia marcescens expressing IMP-1 (CL5741); format: cell-based; conditions: with imipenem 1 μg/ml; 95% inhibition of bacterial growth
In short: (§2)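 Clinical strains grown overnight on blood agar, then diluted 1:100 in 1.1× CAMHB and exposed to test compound with imipenem at 1 μg/ml. Incubation was 22–24 h at 35° C; growth was read by absorbance to find the compound concentration restoring imipenem susceptibility.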

[3] = tested on: Klebsiella pneumoniae expressing VIM-1 (IHMA599644); format: cell-based; conditions: with imipenem 1 μg/ml; 95% inhibition of bacterial growth
In short: as §2

[4] = tested on: Escherichia coli expressing NDM-1 (CLB30005, CLB30016); format: cell-based; conditions: with imipenem 1 μg/ml; 95% inhibition of bacterial growth
In short: as §2

[5] = target: NDM-1 (Klebsiella pneumoniae, UniProt C7C422); assay: biochemical; format: biochemical; conditions: CCF2-FA substrate, 2 hours at 25° C; read-out: NDM-1 IC50
Chain of NDM-1 (C7C422 whole entry, looked up, species assumed): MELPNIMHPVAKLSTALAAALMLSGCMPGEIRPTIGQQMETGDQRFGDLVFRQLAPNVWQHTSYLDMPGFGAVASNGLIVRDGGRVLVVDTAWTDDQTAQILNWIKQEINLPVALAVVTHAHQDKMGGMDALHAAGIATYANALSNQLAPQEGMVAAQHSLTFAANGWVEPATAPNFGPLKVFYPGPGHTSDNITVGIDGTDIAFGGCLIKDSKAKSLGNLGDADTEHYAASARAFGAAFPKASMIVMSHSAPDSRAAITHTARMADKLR
In short: (§3)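 Test compound, enzyme and the FRET cephalosporin substrate CCF2-FA are incubated together for 2 hours at 25° C. Cleavage is followed by fluorescence, and IC50 values are derived from semi-logarithmic inhibition curves fitted with a 4-parameter model.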

[6] = target: IMP-1 (Serratia marcescens, UniProt P52699); assay: biochemical; format: biochemical; conditions: CCF2-FA substrate, 2 hours at 25° C; read-out: IMP-1 IC50
Chain of IMP-1 (P52699 whole entry, looked up, species assumed): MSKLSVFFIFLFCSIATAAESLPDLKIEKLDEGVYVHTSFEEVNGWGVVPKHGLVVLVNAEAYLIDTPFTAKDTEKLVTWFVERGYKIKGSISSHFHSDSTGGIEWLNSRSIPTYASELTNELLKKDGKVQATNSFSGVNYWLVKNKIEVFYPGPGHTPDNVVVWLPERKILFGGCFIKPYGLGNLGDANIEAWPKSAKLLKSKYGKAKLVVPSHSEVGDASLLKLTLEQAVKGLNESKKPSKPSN
In short: as §3

[7] = target: VIM-1 (Pseudomonas aeruginosa (strain ATCC 15692 / DSM 22644 / CIP 104116 / JCM 14847 / LMG 12228 / 1C / PRS 101 / PAO1), UniProt A0A0F7KYQ8); assay: biochemical; conditions: CCF2-FA substrate, 2 hours at 25° C
In short: as §3

[8] = tested on: P. aeruginosa expressing IMP-1, efflux− (MB9799); assay: Efflux: concentration of MBL inhibitor which restores susceptibility to imipenem; format: cell-based, Pseudomonas aeruginosa; conditions: imipenem at 2 μg/mL, in the presence of a class A, C, D serine β-lactamase inhibitor closely related to relebactam
Text: as §1

Row | SMILES | P. aeruginosa expressing IMP-1, efflux+ (MB9798) MITC95 [1] | Efflux ratio [1] | Serratia marcescens expressing IMP-1 (CL5741) MITC95 [2] | Klebsiella pneumoniae expressing VIM-1 (IHMA599644) MITC95 [3] | Escherichia coli expressing NDM-1 (CLB30016) MITC95 [4] | IC50 [5] | IC50 [6] | IC50 [7] | P. aeruginosa expressing IMP-1, efflux− (MB9799) MITC95 [8]
1 | NS(=O)(=O)c1c(S(=O)(=O)C2CNC2)ccc(-c2ccc3cnccc3c2)c1-c1nnn[nH]1.O=C(O)C(F)(F)F [Example 116, 3-((4-(isoquinolin-6-yl)-2-sulfamoyl-3-(1H-tetrazol-5-yl)phenyl)sulfonyl)azetidin-1-ium 2,2,2-trifluoroacetate] | 25 µM | 15.99 | 3.125 µM | 3.125 µM | 1.563 µM | 0.199 nM | 0.722 nM | 0.177 nM | 1.563 µM
2 | NS(=O)(=O)c1c(S(=O)(=O)C2CNC2)ccc(-c2ccc3nccnc3c2)c1-c1nnn[nH]1.O=C(O)C(F)(F)F [Example 117, 3-((4-(quinoxalin-6-yl)-2-sulfamoyl-3-(1H-tetrazol-5-yl)phenyl)sulfonyl)azetidin-1-ium 2,2,2-trifluoroacetate] | 25 µM | 15.99 | 3.125 µM | 6.25 µM | 6.25 µM | 0.93 nM | 1.41 nM | 0.431 nM | 1.563 µM
3 | NS(=O)(=O)c1c(S(=O)(=O)C2CNC2)ccc(-c2cccc3ncccc23)c1-c1nnn[nH]1.O=C(O)C(F)(F)F [Example 118, 3-((4-(quinolin-5-yl)-2-sulfamoyl-3-(1H-tetrazol-5-yl)phenyl)sulfonyl)azetidin-1-ium 2,2,2-trifluoroacetate] | 12.5 µM | 4.00 | 6.25 µM | 6.25 µM | 3.125 µM | 0.145 nM | 1.42 nM | 0.388 nM | 3.125 µM
4 | Cn1nnc2ccc(-c3ccc(S(=O)(=O)C4CNC4)c(S(N)(=O)=O)c3-c3nnn[nH]3)cc21.O=C(O)C(F)(F)F [Example 119, 3-((4-(1-methyl-1H-benzo[d][1,2,3]triazol-6-yl)-2-sulfamoyl-3-(1H-tetrazol-5-yl)phenyl)sulfonyl)azetidin-1-ium 2,2,2-trifluoroacetate] | 100 µM | 63.98 | 6.25 µM | 6.25 µM | 6.25 µM | 1.8 nM | 5.74 nM | 0.506 nM | 1.563 µM
5 | NS(=O)(=O)c1c(S(=O)(=O)C2CNC2)ccc(-c2csc(N3CCCC3)n2)c1-c1nnn[nH]1.O=C(O)C(F)(F)F [Example 120, 3-((4-(2-(pyrrolidin-1-yl)thiazol-4-yl)-2-sulfamoyl-3-(1H-tetrazol-5-yl)phenyl)sulfonyl)azetidin-1-ium 2,2,2-trifluoroacetate] | 25 µM | 15.99 | 3.125 µM | 6.25 µM | 3.125 µM | 0.755 nM | 0.553 nM | 1.42 nM | 1.563 µM
6 | NS(=O)(=O)c1c(S(=O)(=O)C2CNC2)ccc(-c2cnc(N3CCCC3)s2)c1-c1nnn[nH]1.O=C(O)C(F)(F)F [Example 121, 3-((4-(2-(pyrrolidin-1-yl)thiazol-5-yl)-2-sulfamoyl-3-(1H-tetrazol-5-yl)phenyl)sulfonyl)azetidin-1-ium 2,2,2-trifluoroacetate] | 200 µM | 127.96 | 3.125 µM | 6.25 µM | 0.7813 µM | 0.74 nM | 3.57 nM | 1.44 nM | 1.563 µM
